Laboratory results: paper PMC11434422 (2024)

Key:
[1] = test system: ssDNA (ssDNA-compDNA2 hybridized to anchorDNA2) (DNA, single strand) TGTGTAGTGCGGGTTTTTTTTTTGAGATGCAGATCCTGT; assay: SPR, multi-cycle injections; settings: 150 mM Li+, 10 mM Ca2+; HBS-EP pH 7.4, 10 mM HEPES, 3 mM EDTA, 0.05% P20, 1% DMSO; hemin 10-100 µM; highest hemin 100 µM; legend: minimal binding
[2] = test system: c-MYC-G3 (c-MYC-G3-compDNA1 hybridized to anchorDNA1) (DNA, other) TGGGGAGGGTGGGGAATTTTTTTTTCGTGTATTGCTC; assay: SPR, multi-cycle kinetics, 1:1 fit; settings: 150 mM Li+, 10 mM Ca2+; HBS-EP pH 7.4, 10 mM HEPES, 3 mM EDTA, 0.05% P20, 1% DMSO; hemin 10-100 µM

binding [1]: no
KD [2]: 263 ± 3 µM
SMILES: C=CC1=C(C)C2=Cc3c(C=C)c(C)c4[n]3[Fe]([Cl])[n]3c(c(C)c(CCC(=O)O)c3=CC3=NC(=C4)C(C)=C3CCC(=O)O)=CC1=N2
